Measured values: the NIST ThermoML archive (doi:10.1016/j.fluid.2014.10.015)
Numbers after ± are expanded uncertainties.

Experiment: molar heat capacity at constant pressure
Details: 101.33 kPa, Liquid, Small sample (50 mg) DSC

CC(=O)[O-].CCCCn1cc[n+](C)c1 [1-butyl-3-methylimidazolium acetate]
Details	molar heat capacity at constant pressure [J/K/mol]
253.15 K	359.54 ± 22
258.15 K	361.57 ± 22
263.15 K	363.69 ± 22
268.15 K	365.9 ± 23
273.15 K	368.21 ± 23
278.15 K	370.61 ± 23
283.15 K	373.1 ± 23
293.15 K	378.36 ± 23
298.15 K	381.12 ± 23
303.15 K	383.98 ± 24
313.15 K	389.98 ± 24
323.15 K	396.35 ± 24
333.15 K	403.09 ± 25
343.15 K	410.2 ± 25
353.15 K	417.68 ± 26
363.15 K	425.53 ± 26
373.15 K	433.75 ± 27
383.15 K	442.34 ± 27
393.15 K	451.3 ± 28
403.15 K	460.63 ± 28
413.15 K	470.33 ± 29
